In patent US8980544B2, “Boronic and borinic acid compounds as inhibitors of sulfenic acid-containing proteins” (The Penn State Research Foundation, priority 2012, dated 2015):
Where two headings read alike, the source gives them in different places. Marks after values point to notes of the source that are not given here.

Legend:
[1] = pKa by half-neutralization technique in acetonitrile-water; format: physicochemical
Procedure: The final volume of the solutions is 5 mL. The averaged pKa values from duplicate measurements are reported, and used for analysis.
It should be noted that the pKa values determined this way are not corrected for the change in the autoprotolysis constant of the solution due to mix solvent system.

[2] = literature value; cited from earlier work
[3] = biological target: T1, iron-based NHase from Rhodococcus erythropolis AJ270 (Rhodococcus erythropolis, UniProt P13448); experiment: Enzymatic inhibition of nitrile hydratase (NCTB conversion, 412 nm); format: biochemical; settings: for Average rate (abs/min): 1 mM NCTB, 23° C.; for Rate relative to NHase: NHase without additive = 100%; for Activity: nmol thiolate product per minute per mg freeze-dried NHase powder
T1 construct: purchased Prozomix Limited
T1 sequence (P13448 1-207): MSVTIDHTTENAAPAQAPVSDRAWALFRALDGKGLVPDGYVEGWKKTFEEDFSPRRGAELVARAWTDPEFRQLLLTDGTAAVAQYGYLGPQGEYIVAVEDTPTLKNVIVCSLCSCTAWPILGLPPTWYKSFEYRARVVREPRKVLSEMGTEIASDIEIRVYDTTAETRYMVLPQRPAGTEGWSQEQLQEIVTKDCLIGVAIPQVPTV
T1 sequence (P13449 1-212 partner): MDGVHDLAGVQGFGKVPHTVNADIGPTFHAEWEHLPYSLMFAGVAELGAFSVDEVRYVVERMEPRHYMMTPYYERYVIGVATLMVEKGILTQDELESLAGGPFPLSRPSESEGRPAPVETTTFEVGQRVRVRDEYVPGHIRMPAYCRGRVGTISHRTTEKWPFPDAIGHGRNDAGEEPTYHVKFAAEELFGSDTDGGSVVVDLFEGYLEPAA
Procedure: Here, the catalytic efficiency of the iron-based NHase from Rhodococcus erythropolis AJ270 (purchased from Prozomix Limited, Station court, Haltwhistle, Northumberland, NE49 9HN, UK; see, proxomix.com) was assayed in the presence of a known sulfenic acid trap (dimedone) and four boronic acid derivatives. The chosen assay [Sari et al., J. Inorg. Biochem. 2007 101:614-622] was the conversion of 2-nitro-5-thiocyanatobenzoic acid (NCTB) into formamide and 5-mercapto-2-nitrobenzoic acid.
The freeze-dried powder from Prozomix was shipped at room temperature and stored at −20° C. upon arrival. The enzyme was reconstituted at 20 mg/mL in 50 mM phosphate buffer (pH 7.0) with 40 mM butyric acid. These were similar conditions to those described in the Prozomix protocol, the main difference being the use of phosphate buffer instead of Tris buffer; by itself, NHase prepared in Tris had the same reactivity as samples prepared in phosphate buffer. The solution was exposed to 400 W white light for 25 minutes on ice to permit for photo-reactivation of the enzyme.
The kinetic studies were conducted by diluting the stock solution of NHase into de-ionized distilled water (ddH2O) to get at about 0.33 mg/mL of freeze-dried NHase powder provided by Prozomix (used without further manipulation) in solution. Appropriate amounts of PBA (phenyl boronic acid; 2 g), BOXY ((2-hydroxylmethyl)-benzeneboronic acid hemiester; 2A), 3BrB (3-bromobenzeneboronic acid; 2d), or dimedone were added to the mixtures so that the final concentrations of the boronic acids/dimedone were 0, 0.5, 1.0, 2.0, or 2.5 mM.
After permitting the newly composed mixtures to sit at room temperature (at about 23° C.) for five minutes, NCTB was added so that the final NCTB concentration equalled 1 mM. The final volume of the mixtures was 1 mL in UV-cells with 1 cm path length. The final concentration of the phosphate buffer was 3.6 mM. The progress of the reaction (release of the thiolate product at 412 nm; extinction coefficient at 412 nm=13600/M/cm) [Sari et al., J. Inorg. […] The rates of the reaction were determined from fitting the first 4 minutes of the absorbance vs. time traces to a standard linear equation. The activity values were calculated as nmol of thiolate product generated per minute per mg of freeze-dried NHase powder. The reaction rates are reported below in Table 4, below, as averages of duplicate kinetic studies.

[4] = Spectrophotometric (UV/vis) titration of boronic acids 2 against the sodium salt of sulfenic acid 1, incl. reversibility with NaOH; settings: for Kd: read-out: Averaged Kd from spectrophotometric titrations
Procedure: The titration studies were performed using a Cary 100 Bio UV/vis spectrophotometer thermostated at 22° C. […] Each titration study was completed within 10 minutes.
The initial solution contained 0.8 mM of the sodium salt of 1.

[5] = 15% (v/v) acetonitrile-water mixture, 15% (v/v) acetonitrile-water, half-neutralization, averaged duplicates, Table 1, read-out: pKa in 15% acetonitrile-water at 22° C.
[6] = 70% (v/v) acetonitrile-water mixture, read-out: Averaged pKa value from half neutralization method in 70% (v/v) acetonitrile-water
[7] = 15% acetonitrile-water mixture, 15% acetonitrile-water, as listed in Table 2, read-out: pKa in 15% acetonitrile-water
[8] = complex 1:2, 70% (v/v) acetonitrile-water, 22° C.
[9] = complex 1:2, 15% (v/v) acetonitrile-water

SMILES	pKa [1, 5]	pKa [1, 7]	Average rate (abs/min) ([3]; [B]/[Dimedone] = 0.5 mM)	Rate relative to NHase ([3]; [B]/[Dimedone] = 0.5 mM)	Activity ([3]; [B]/[Dimedone] = 0.5 mM)	Average rate (abs/min) ([3]; [B]/[Dimedone] = 1.0 mM)	Rate relative to NHase ([3]; [B]/[Dimedone] = 1.0 mM)	Activity ([3]; [B]/[Dimedone] = 1.0 mM)	Average rate (abs/min) ([3]; [B]/[Dimedone] = 2.0 mM)	Rate relative to NHase ([3]; [B]/[Dimedone] = 2.0 mM)	Activity ([3]; [B]/[Dimedone] = 2.0 mM)	Average rate (abs/min) ([3]; [B]/[Dimedone] = 2.5 mM)	Rate relative to NHase ([3]; [B]/[Dimedone] = 2.5 mM)	Activity ([3]; [B]/[Dimedone] = 2.5 mM)	further results
O=C1c2ccccc2C(=O)c2c(SO)cccc21 [Compound 1, anthraquinone-1-sulfenic acid, reference compound]	7.61 ± 0.02														pKa [1, 6]: 8.6 ± 0.1; pKa value reported in Kice et al., J. Org. Chem. 1989 [2]: 7.51
OB1OCc2ccccc21 [Compound 2A, 2-(hydroxymethyl)benzeneboronic acid hemiester]	7.8	7.8	0.0039 ± 0.0002 abs/min	87%	0.870 nmol/min/mg	0.0034 ± 0.0002 abs/min	74%	0.826 nmol/min/mg	0.00266 ± 0.00008 abs/min	61%	0.592 nmol/min/mg	0.00205 ± 0.00009 abs/min	45%	0.502 nmol/min/mg	pKa [1, 6]: 10.2; Effectiveness of NHase inhibition among the boronic acids examined ([3]; comparison of PBA, BOXY, 3BrB, 0.5-2.5 mM): most effective; Averaged -log (Kd) in 15% acetonitrile-water at 22° C. [4]: 3.8 ± 0.1; Averaged -log (Kd) in 70% acetonitrile-water at 22° C. [4]: 3.90 ± 0.02; Kd [4]: 158 µM
O=[N+]([O-])c1ccc(B(O)O)cc1 [Compound 2b, 4-nitrobenzeneboronic acid]	7.39 ± 0.05														
OB(O)c1cccc(Br)c1 [Compound 2d, 3-Bromobenzene-boronic acid]	8.55	8.48	0.0039 ± 0.0004 abs/min	87%	0.878 nmol/min/mg	0.00369 ± 0.00009 abs/min	81%	0.903 nmol/min/mg	0.00348 ± 0.0004 abs/min	79%	0.775 nmol/min/mg	0.00319 ± 0.0007 abs/min	69%	0.782 nmol/min/mg	Averaged -log (Kd) in 70% acetonitrile-water at 22° C. [4, 8]: 4.0 ± 0.1; Kd [4, 9]: 158 µM
OB(O)c1ccc(Br)cc1 [Compound 2e, 4-bromo-benzeneboronic acid]	9.1 ± 0.1														
OB(O)c1ccc(F)cc1 [Compound 2f, 4-fluorobenzene-boronic acid]	9.4 ± 0.02														
OB(O)c1ccccc1 [Compound 2g, phenylboronic acid]	9.5 ± 0.06	9.38	0.0043 ± 0.0004 abs/min	96%	0.968 nmol/min/mg	0.0041 ± 0.0002 abs/min	91%	1.006 nmol/min/mg	0.00382 ± 0.00004 abs/min	87%	0.851 nmol/min/mg	0.0038 ± 0.0001 abs/min	83%	0.931 nmol/min/mg	Averaged -log (Kd) in 70% acetonitrile-water at 22° C. [4, 8]: 3.96 ± 0.04; Kd [4, 9]: 200 µM
COc1ccc(B(O)O)cc1 [Compound 2h, 4-methoxybenzeneboronic acid]	10.13 ± 0.02														
CC1(C)CC(=O)CC(=O)C1 [Dimedone, 5,5-dimethyl-1,3-cyclohexanedione, reference compound]			0.00274 ± 0.00006 abs/min	61%	0.611 nmol/min/mg	0.0017 ± 0.0004 abs/min	37%	0.406 nmol/min/mg	0 abs/min	0%***	0 nmol/min/mg	0 abs/min	0%	0 nmol/min/mg	
